The source of these data is patent US20190167647A1, “PHARMACEUTICAL COMPOSITION FOR STROKE TREATMENT BASED ON AMPK INHIBITION” (INDUSTRY ACADEMY COOPERATION FOUNDATION OF SEJONG UNIVERSITY, priority 2016, published 2019).

The structures appear in SMILES notation.

In data set [1] the test system is neuronal cells. The data set can be described thus: H2O2 neurotoxicity with chelators (LDH secretion). Format: cell-based. The method, then:
There is reported that intracellular free zinc is increased in a neurotoxicity mechanism due to hydrogen peroxide, wherein hydrogen peroxide toxicity is reduced when the cells are treated using the zinc chelator. […] Therefore, in order to monitor whether effects of the drug #28 are associated with a reduction of zinc in the above case, the neuronal cells were treated with hydrogen peroxide (H2O2), a zinc chelator such as TPEN or CaEDTA and a calcium chelator such as ZnEDTA, followed by monitoring neurotoxicity (LDH secretion).

Data set [2] deals with cultured cerebral cortex neurons of a mouse. In words: H2O2-induced neurotoxicity, propidium iodide staining. Format: cell-based. To be noted: H2O2 100 μM 4.5 hours; 10 μM drug; excepted drugs = no significant inhibition. The method, then: More particularly, the neurotoxicity model for observation of neurotoxicity inhibitory effects includes excitotoxicity, oxidative damage, etc. which are classified as a cause mechanism of stroke. NMDA (N-methyl-D-aspartate) was used as the excitotoxicity model while the oxidative model used herein was a hydrogen peroxide (H2O2) toxicity model. First, using NMDA (50 μM) or H2O2 (100 μM), the cultured cerebral cortex neurons of a mouse were treated for 1.5 hours and 4.5 hours, respectively, resulting in induction of neurotoxicity. The neurons were further treated with the selected 12 drugs (10 μM) as well as the existing selected drug #28 (20 μM). Then, after staining the neurons with propidium iodide (PI), the stained cells were quantified to determine a degree of cell death.

Data set [3] has as its system mouse cortical cultures. In words: TPEN-induced neurotoxicity (LDH secretion). It counts as cell-based. An excerpt:
(§1) Generally, application of TPEN as a zinc chelator easily flowing into the cells causes a cell death in the form of typical apoptosis (EDTA is not introduced into the cells). When adding zinc to the above treatment, intracellular free zinc ions are retained thus to reduce neuronal death and further reduce caspase-3 protease activity in the apoptosis process. Under expectation such that: the drug #28 and clioquinol may not only serve as a chelator but also play a role of an ion permeable carrier; these drugs flow into cells as combined with zinc; thereafter, the zinc is removed from the drug because a concentration of free zinc in the cytoplasm is too low; therefore, the concentration of free zinc in the cytoplasm is increased thus to reduce neurotoxicity due to TPEN, caspase-3 activity and neurotoxicity (LDH secretion) were under observation after treatment using zinc, the drug #28 and clioquinol.

The subject of data set [4] is mouse cortical cultures. The data set can be described thus: TPEN-induced caspase-3 activity. Format: cell-based.
Description: as §1

The test system of data set [5] is cerebral cortex neurons. The data set can be described thus: Western blot of Bim and caspase-3 after zinc treatment. It counts as cell-based, mouse. To be noted: 300 μM ZnCl2, 20 μM compound. As for the experimental part: More particularly, the cerebral cortex neurons were treated with 300 μM zinc (ZnCl2) for 2, 3, 4, 5 and 6 hours to induce zinc toxicity. From each sample, protein was separated and subjected to Western blot and treatment using 20 μM compound C (+Cpd C) as an AMPK inhibitor, so as to identify a relationship between the zinc toxicity and apoptosis.

Data set [6] has as its system cultured cerebral cortex neurons. The data set can be described thus: Zinc neurotoxicity, TUNEL staining and LDH assay. It counts as cell-based, mouse. To be noted: 300 μM ZnCl2 10 min, 10 hours later; 20 μM compound. The method, then:
Cerebral cortex neurons of a mouse used in the present invention were extracted from the mouse embryos brain and cultured, followed by further culturing the same using a Dulbecco's modified Eagle's medium (DMEM, Gibco, Grand Island, N.Y., US) containing 5% fetal bovine serum (FBS) and 5% horse serum (HS) under conditions of 95% humidity, 5% CO2 and 37° C. temperature. For activation and differentiation of the above cells, these cells were proliferated at a density of 2×10^4 cells in 24-well tissue culture plate. Further, prior to treatment using zinc and the compounds, the cells were incubated in MEM medium without FBS and HS.
More particularly, the cultured cerebral cortex neurons according to the embodiment of the present invention were treated with 300 μM zinc (ZnCl2) for 10 minutes then removed. 10 hours later, cytotoxicity was observed by TUNEL staining or LDH (Lactate Dehydrogenase). Further, these cells were treated with AMPK inhibitor, that is, 20 μM compound C (+Cpd C, Tocris), followed by observation whether neurotoxicity is reduced or not.

Data set [7] concerns the target T1, recombinant AMPK (α2/β1/γ1) (Homo sapiens, UniProt P54646).
T1 construct: purchased CycLex, Japan
In words: AMPK enzymatic activity assay (CycLex kit). It counts as biochemical. To be noted: 10 μM. As for the experimental part:
More particularly, AMPK enzymatic activity was measured by an AMPK activity assay kit (CycLex, Japan) and recombinant AMPK (α2/β1/γ1 CycLex, Japan).

Data set [8] deals with mouse. To be noted: administered to a mouse; cited from earlier work.
Data set [9] can be described thus: Calcium chelation with Fura-2 dye (test tube). It counts as physicochemical. To be noted: Fura-2 dye, test tube. The method, then:
In order to determine whether the above result is obtained by the chelation of Ca^2+ ions other than the drug #28, protective effects of the drug #28 (10 to 60 μM) after treatment using ionomycin, which is a calcium ion permeable carrier (‘calcium ionophore’) directly increasing the intracellular calcium concentration, were under observation. Further, using a Fura-2 dye that is combined with calcium to represent fluorescence, it was monitored whether the drug #28 is combined with calcium on a test tube and represents chelating effects.

Data set [10] deals with cultured cerebral cortex neurons of a mouse. In words: Zinc ion permeable carrier test, ZinPyr-1. Format: cell-based. To be noted: #28 0.05 μM, clioquinol 0.5 μM. As for the experimental part: ZinPyr-1 is a fluorescent dye which has a lower Kd value than that of FluoZin-3 and is used to measure a change in a zinc concentration even at a lower concentration. Whether the drug #28 of the present invention can act as an ion permeable carrier was under observation using ZinPyr-1. More particularly, the cultured cerebral cortex neurons of a mouse were treated with ZinPyr-1 then treated with the drug #28 (0.05 μM) and clioquinol (0.5 μM) in a typically used neuronal cell culture medium, so as to determine a change in zinc ion concentrations in the neurons. Also, a non-treatment group was used as a control group.
Therefore, after adding a further 0.5 μM concentration of zinc to the cell culture medium, a change in zinc concentration in the cells was under observation.

Data set [11] in a line: Free zinc concentration by fluorescent dye (Newport green DCF, FluoZin-3). Format: physicochemical. To be noted: 20 μM; Newport green DCF or FluoZin-3. The method, then: Further, in conjunction with clioquinol (20 μM) or the drug #28 (20 μM), a zinc fluorescent dye, i.e., Newport green DCF (0.5 μM, Kd(Zn)=1 uM) or FluoZin-3 (0.5 μM, Kd(Zn)=15 nM) was used for measurement of free zinc concentration.

T1 sequence (P54646 whole entry): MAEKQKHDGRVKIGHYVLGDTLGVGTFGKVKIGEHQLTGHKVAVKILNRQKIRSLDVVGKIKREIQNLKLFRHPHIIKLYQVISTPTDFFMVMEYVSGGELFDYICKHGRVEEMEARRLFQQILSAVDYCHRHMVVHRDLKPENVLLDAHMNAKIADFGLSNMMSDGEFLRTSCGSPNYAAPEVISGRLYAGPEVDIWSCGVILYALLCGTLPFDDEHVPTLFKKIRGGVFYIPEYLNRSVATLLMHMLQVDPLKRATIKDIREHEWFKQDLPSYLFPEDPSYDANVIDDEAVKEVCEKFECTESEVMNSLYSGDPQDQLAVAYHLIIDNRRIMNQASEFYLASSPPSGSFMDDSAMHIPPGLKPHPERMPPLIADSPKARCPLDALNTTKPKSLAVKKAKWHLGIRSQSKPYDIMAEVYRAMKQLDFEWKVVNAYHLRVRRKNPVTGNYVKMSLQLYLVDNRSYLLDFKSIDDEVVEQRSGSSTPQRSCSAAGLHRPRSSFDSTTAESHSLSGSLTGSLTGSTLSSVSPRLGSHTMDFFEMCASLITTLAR
T1 sequence (Q9Y478 whole entry partner): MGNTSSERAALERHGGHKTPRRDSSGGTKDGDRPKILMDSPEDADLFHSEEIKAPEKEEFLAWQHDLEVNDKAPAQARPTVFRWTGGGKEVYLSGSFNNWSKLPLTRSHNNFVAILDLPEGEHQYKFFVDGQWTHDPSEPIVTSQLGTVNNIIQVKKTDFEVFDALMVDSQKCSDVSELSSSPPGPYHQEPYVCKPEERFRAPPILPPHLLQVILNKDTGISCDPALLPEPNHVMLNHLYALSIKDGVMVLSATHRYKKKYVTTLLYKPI
T1 sequence (P54619 whole entry partner): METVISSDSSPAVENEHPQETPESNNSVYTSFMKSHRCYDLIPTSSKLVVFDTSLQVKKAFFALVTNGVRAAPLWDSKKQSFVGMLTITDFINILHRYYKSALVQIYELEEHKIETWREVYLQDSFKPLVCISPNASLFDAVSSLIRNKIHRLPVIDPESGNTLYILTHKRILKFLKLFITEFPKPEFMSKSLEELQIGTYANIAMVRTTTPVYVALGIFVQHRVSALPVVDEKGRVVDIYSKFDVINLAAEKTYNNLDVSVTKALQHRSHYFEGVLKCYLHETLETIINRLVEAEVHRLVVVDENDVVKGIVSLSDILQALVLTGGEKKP

With `c1ccc(CN(CCN(Cc2ccccn2)Cc2ccccn2)Cc2ccccn2)nc1` [TPEN, N,N,N′,N′-tetrakis (2-pyridylmethyl) ethylenediamine], in data set [1], the “neurotoxicity caused by hydrogen peroxide” value (“neurotoxicity caused” for short) is reported as “reduced neurotoxicity caused by hydrogen peroxide”.

For `Cc1cccc(NC2=NC(=O)/C(=C/c3c[nH]c4ccccc34)S2)c1C` [Compound 4B04, (5Z)-2-[(2,3-Dimethylphenyl)amino]-5-(1H-indol-3-ylmethylene)-1,3-thiazol-4(5H)-one], the “inhibition of H2O2-induced neurotoxicity” value in [2] was “other than two drugs”.

Regarding `[Cl-].[Cl-].[Zn+2]` [zinc], the “neurotoxicity by TPEN” value in [3] is “decrease neurotoxicity by TPEN”. Moreover, the “caspase-3 activity induced by TPEN” value in data set [4] is listed as “significantly reduce caspase-3 activity induced by TPEN”.

Turning to `c1cc(-c2cnn3cc(-c4ccc(OCCN5CCCCC5)cc4)cnc23)ccn1` [Compound C], in [5], the “increase in Bim caused by zinc toxicity” value is “reduce” and the “increase in caspase-3 activity caused by zinc toxicity” value is “reduce”. The “zinc neurotoxicity (TUNEL staining and LDH assay)” value in data set [6] is “significantly reduced”. Further, in data set [7], the “Mean (% remaining activity)” value worked out at 5.3000%. In addition, the “size of infarcted part” value in data set [8] is recorded as “significantly reduces a size of an infracted part”.

Turning to `Cc1ccccc1NC1=NC(=O)/C(=C/c2c[nH]c3ccccc23)S1` [Compound 4B03, (5Z)-5-(1H-Indol-3-ylmethylene)-2-[(2-methylphenyl)amino]-1,3-thiazol-4(5H)-one], the “inhibition of H2O2-induced neurotoxicity” value in [2] is on record as “other than two drugs”.

For `O=C([O-])CN(CCN(CC(=O)[O-])CC(=O)[O-])CC(=O)[O-].[Ca+2].[Na+].[Na+]` [CaEDTA], in data set [1], the “neurotoxicity caused” value is recorded as “significantly reduced toxicity”.

Regarding `O=C(O)CN(CCN(CC(=O)O)CC(=O)O)CC(=O)O` [EDTA, reference compound], the “chelating effects for calcium” value in [9] is “good chelating effects at a low calcium concentration”.

Regarding `Oc1c(I)cc(Cl)c2cccnc12` [clioquinol, reference compound], in data set [10], the “increase of zinc in neurons, general culture conditions” value is “an increase of zinc by clioquinol was observed”. In addition, the free zinc ions result in [11] is given as “reduce free zinc ions”. In [3], the “neurotoxicity by TPEN” value is “decrease neurotoxicity by TPEN”. In addition, the “caspase-3 activity induced by TPEN” value in data set [4] is recorded as “significantly reduce caspase-3 activity induced by TPEN”.

With `C=C1C(=O)OC(CCCCCCCC)C1C(=O)O` (stereo not drawn) [Compound C75], in data set [8], the “size of infarcted part” value was “significantly reduces a size of an infracted part”.

Take `O=C([O-])CN(CCN(CC(=O)O)CC(=O)O)CC(=O)[O-].[Zn+2]` [ZnEDTA]: in [1], the “neurotoxicity caused” value is “did not inhibit toxicity”.
